According to patent US8946405B2, “Controlled release from solid supports” (Prolynx LLC, priority 2010, dated 2015):

Legend:
[1] = Hydrolysis of carbamate in 50% human serum; assay type: in vitro ADME; conditions: after 1 week at 37° C.
Excerpt: In general, compared to C—H, a) electron withdrawing groups at R^1 increase the rate; b) alkyl groups at R^5 increase the rate; and c) aryl moieties at R^5 decrease the rate.

[2] = Release of Nε-2,4-dinitrophenyl-L-lysine from DNP-Lys carbamates (β-elimination), HPLC; assay type: physicochemical; conditions: after 5 days at 37° C. and pH 7.4
Protocol: A series of linker scaffolds having a range of functional groups as potential pKa modulators (substituted aromatics, ketones, nitriles, sulfones) were designed, prepared and linked via carbamate bonds to Ne-2,4-dinitrophenyl-L-lysine (Ne-DNP-Lys) for evaluation of release rates. DNP-Lys was chosen as the released moiety as is water soluble and is a strong chromophore to permit HPLC-UV analysis.
The rates of release of Nε-2,4-dinitrophenyl-L-lysine from these compounds were determined at pH 7.4 or pH 8.3, 37° C., by HPLC analysis. Kinetic analyses of the release reactions were performed by HPLC (C18; linear MeOH/water+0.5% HOAc gradient) using a UV/vis monitor at 350 nm. The areas under the Lys(DNP) (“P”) and starting material (“S”) peaks were integrated to determine extent of reaction (“R”) as R=P/(S+P). Reaction rates were calculated from the slope the line obtained by linear regression analysis of a plot of ln(1-R) versus time.

For `O=C(N[C@@H](CCCCNc1ccc([N+](=O)[O-])cc1[N+](=O)[O-])C(=O)O)OCc1ccccc1` [O-benzyl-N—(Nε-2,4-dinitrophenyl-L-lysine)-carbamate], the “hydrolysis in 50% human serum” value [1] was “no detectable hydrolysis”, the “cleavage (estimated detection limit)” value [2] was less than 0.25% and the “release of Nε-2,4-dinitrophenyl-L-lysine” value [2] was “no observable release”.
